Results reported in ChEMBL document CHEMBL4622898, “Synthesis, in vitro ADME profiling and in vivo pharmacological evaluation of novel glycogen phosphorylase inhibitors” (Bioorg Med Chem Lett, 2020).
≈ marks a conversion by molar mass, not a printed value. Calls of active or inactive are those of the source. The calls are words filed in the database; no cut-off is given here.

What was measured:
[1] = Inhibition of rabbit muscle Glycogen phosphorylase measured phosphate release from glucose-1-phosphate; parameters: species or system Oryctolagus cuniculus
HepG2 = experiment: Inhibition of glycogenolysis in human HepG2 cells assessed as GCN-stimulated glycogen breakdown after 5 mins; format: functional, cell-based; conditions: HepG2, 5 min
Hepatocyte = experiment: Inhibition of glycogenolysis in rat hepatocytes assessed as GCN-stimulated glycogen breakdown after 5 mins; format: functional, cell-based
[2] = Lipophilicity, log D of the compound in 1-Octanol-phosphate buffer at pH 7.4; format: physicochemical
[3] = Stability of compound in simulated intestinal fluid assessed as compound degradation measured up to 1 hr; format: physicochemical; conditions: simulated gi fluid
[4] = Stability of compound in mouse plasma assessed as compound degradation measured up to 0.5 hrs; format: ADME, cell-free
[5] = Stability of compound in simulated gastric fluid assessed as compound degradation measured up to 24 hrs relative to control; format: physicochemical; conditions: read-out: Drug degradation
[6] = Half life in mouse liver microsomes; format: ADME, Microsome
[7] = Intrinsic clearance in mouse liver microsomes; format: ADME, Microsome
[8] = Clearance in mouse liver microsomes; format: ADME, Microsome
physchem = conditions: buffer, pH 7.4
Description: Kinetic solubility of compound at pH 7.4 by high-throughput kinetic solubility assay

[9] = Inhibition of recombinant human liver glycogen phosphorylase a expressed in baculovirus-infected Sf9 cells using glucose-1-phosphate as substrate in presence of 7.5 mM glucose
[10] = Aqueous solubility of compound; format: physicochemical; conditions: buffer
[11] = Stability of compound in simulated gastric fluid assessed as compound degradation measured up to 24 hrs; format: physicochemical; conditions: simulated gi fluid
[12] = Stability of compound in mouse plasma assessed as compound degradation measured up to 24 hrs; format: ADME, cell-free
Mus musculus [13] = experiment: Hypoglycemic activity in adrenaline-induced diabetic mouse assessed as fasted plasma glucose level at 200 mg/kg, po measured immediately (reference value: 4.84 +/- 0.15); format: functional
Mus musculus [14] = experiment: Hypoglycemic activity in adrenaline-induced diabetic mouse assessed as fasted plasma glucose level at 200 mg/kg, po measured after 30 min (reference value: 9.58 +/- 0.44); format: functional
Mus musculus [15] = experiment: Hypoglycemic activity in adrenaline-induced diabetic mouse assessed as fasted plasma glucose level at 200 mg/kg, po measured after 60 min (reference value: 8.41 +/- 0.48); format: functional
Mus musculus [16] = experiment: Hypoglycemic activity in adrenaline-induced diabetic mouse assessed as fasted plasma glucose level at 200 mg/kg, po measured after 90 min (reference value: 7.56 +/- 0.49); format: functional
Mus musculus [17] = experiment: Hypoglycemic activity in adrenaline-induced diabetic mouse assessed as glucose AUC at 200 mg/kg, po measured up to 90 min (reference value: 482.63 +/- 21.01 mg/dL.min); format: functional, organism-based; parameters: dose 200 mg/kg, time < 1.5 hr
[18] = Stability of compound in simulated intestinal fluid assessed as compound degradation measured up to 6 hrs; format: physicochemical; conditions: simulated gi fluid
Mus musculus [19] = experiment: Hypoglycemic activity in adrenaline-induced diabetic fasted mouse assessed as reduction in plasma glucose level at 12.5 to 50 mg/kg, po; format: functional, organism-based
Mus musculus [20] = species on record: Mus musculus; experiment: Hypoglycemic activity in adrenaline-induced diabetic mouse assessed as blood glucose level measured at 1.5 hrs (reference value: 486.15 +/- 22.65 mg/dl); format: functional
Mus musculus [21] = experiment: Hypoglycemic activity in adrenaline-induced diabetic mouse assessed as fasted plasma glucose level at 50 mg/kg, po measured immediately (reference value: 4.84 +/- 0.15); format: functional
Mus musculus [22] = experiment: Hypoglycemic activity in adrenaline-induced diabetic mouse assessed as fasted plasma glucose level at 25 mg/kg, po measured immediately (reference value: 4.84 +/- 0.15); format: functional
Mus musculus [23] = experiment: Hypoglycemic activity in adrenaline-induced diabetic mouse assessed as fasted plasma glucose level at 12.5 mg/kg, po measured immediately (reference value: 4.84 +/- 0.15); format: functional
Mus musculus [24] = experiment: Hypoglycemic activity in adrenaline-induced diabetic mouse assessed as fasted plasma glucose level at 50 mg/kg, po measured after 30 min (reference value: 9.58 +/- 0.44); format: functional
Mus musculus [25] = experiment: Hypoglycemic activity in adrenaline-induced diabetic mouse assessed as fasted plasma glucose level at 25 mg/kg, po measured after 30 min (reference value: 9.58 +/- 0.44); format: functional
Mus musculus [26] = experiment: Hypoglycemic activity in adrenaline-induced diabetic mouse assessed as fasted plasma glucose level at 12.5 mg/kg, po measured after 30 min (reference value: 9.58 +/- 0.44); format: functional
Mus musculus [27] = experiment: Hypoglycemic activity in adrenaline-induced diabetic mouse assessed as fasted plasma glucose level at 50 mg/kg, po measured after 60 min (reference value: 8.41 +/- 0.48); format: functional
Mus musculus [28] = experiment: Hypoglycemic activity in adrenaline-induced diabetic mouse assessed as fasted plasma glucose level at 25 mg/kg, po measured after 60 min (reference value: 8.41 +/- 0.48); format: functional
Mus musculus [29] = experiment: Hypoglycemic activity in adrenaline-induced diabetic mouse assessed as fasted plasma glucose level at 12.5 mg/kg, po measured after 60 min (reference value: 8.41 +/- 0.48); format: functional
Mus musculus [30] = experiment: Hypoglycemic activity in adrenaline-induced diabetic mouse assessed as fasted plasma glucose level at 50 mg/kg, po measured after 90 min (reference value: 7.56 +/- 0.49); format: functional
Mus musculus [31] = experiment: Hypoglycemic activity in adrenaline-induced diabetic mouse assessed as fasted plasma glucose level at 25 mg/kg, po measured after 90 min (reference value: 7.56 +/- 0.49); format: functional
Mus musculus [32] = experiment: Hypoglycemic activity in adrenaline-induced diabetic mouse assessed as fasted plasma glucose level at 12.5 mg/kg, po measured after 90 min (reference value: 7.56 +/- 0.49); format: functional
Mus musculus [33] = experiment: Hypoglycemic activity in adrenaline-induced diabetic mouse assessed as glucose AUC at 50 mg/kg, po measured up to 90 min (reference value: 482.63 +/- 21.01 mg/dL.min); format: functional, organism-based; parameters: time < 1.5 hr, dose 50 mg/kg
Mus musculus [34] = experiment: Hypoglycemic activity in adrenaline-induced diabetic mouse assessed as glucose AUC at 25 mg/kg, po measured up to 90 min (reference value: 482.63 +/- 21.01 mg/dL.min); format: functional, organism-based; parameters: dose 25 mg/kg, time < 1.5 hr
Mus musculus [35] = experiment: Hypoglycemic activity in adrenaline-induced diabetic mouse assessed as glucose AUC at 12.5 mg/kg, po measured up to 90 min (reference value: 482.63 +/- 21.01 mg/dL.min); format: functional, organism-based; parameters: time < 1.5 hr, dose 12.5 mg/kg

| IC50 [1] | IC50 (HepG2) | logD [2] | Stability [3] | half-life [6] | CLint [7] | CLint scaled [8] | solubility kinetic (physchem) | Structure (SMILES) | IC50 (Hepatocyte) | further results |
| --- | --- | --- | --- | --- | --- | --- | --- | --- | --- | --- |
| 0.0487 µM | 0.661 µM | 3.95 | Unstable | 15.4 min | 90 µL/min/mg | 356 mL/min/kg | 1.89 µM (≈ 0.782 µg/mL) | COC(=O)CNC(=O)[C@H](Cc1ccccc1)NC(=O)c1cc2cc(Cl)ccc2[nH]1 | 0.72 µM | Stability [4]: Unstable; degraded at 24 h [5]: 50% |
| – | – | 3.23 | – | – | – | – | – | CN(C)CCCN1c2ccccc2Sc2ccc(Cl)cc21 [CHLORPROMAZINE] | – | – |
| 0.578 µM | 8.39 µM | – | – | – | – | – | – | O=C(N[C@@H](Cc1ccc(O)cc1)c1nc2ccccc2[nH]1)c1cc2cc(Cl)ccc2[nH]1 | 9.46 µM | – |
| 0.0922 µM | 3.31 µM | – | – | – | – | – | – | CN(C)C(=O)[C@H](O)[C@H](Cc1ccccc1)NC(=O)c1cc2cc(Cl)ccc2[nH]1 | 3.17 µM | IC50 [9]: 0.11 µM; solubility [10]: < 1000 µg/mL |
| 0.555 µM | 6.47 µM | 3.32 | Unstable | > 145 min | < 9.6 µL/min/mg | < 38 mL/min/kg | 36.8 µM (≈ 14.7 µg/mL) | NC(=O)[C@@H](Cc1ccccc1)NC(=O)CNC(=O)c1cc2cc(Cl)ccc2[nH]1 | 7.65 µM | Stability [11]: Stable; Stability [12]: Stable |
| – | – | – | – | – | – | – | – | CN(C)C(=N)NC(=N)N [METFORMIN] | – | OD (Mus musculus [13]): 4.76; plasma glucose (Mus musculus [14]): 8.85 mM; plasma glucose (Mus musculus [15]): 5.79 mM; OD (Mus musculus [16]): 5; AUC (Mus musculus [17]): 374 mg/dL×min |
| 0.289 µM | 3.24 µM | 0.72 | Stable | > 145 min | < 9.6 µL/min/mg | < 38 mL/min/kg | 188 µM (≈ 75.1 µg/mL) | O=C(O)CNC(=O)[C@H](Cc1ccccc1)NC(=O)c1cc2cc(Cl)ccc2[nH]1 | 7.15 µM | Stability [11]: Stable; Stability [12]: Stable; Stability [18]: Unstable; Activity (Mus musculus [19]): Active; Activity (Mus musculus [20]): 446.25 mg/dL; OD (Mus musculus [21]): 4.86; OD (Mus musculus [22]): 4.85; OD (Mus musculus [23]): 4.89; plasma glucose (Mus musculus [24]): 9.03 mM; plasma glucose (Mus musculus [25]): 9.52 mM; plasma glucose (Mus musculus [26]): 8.92 mM; plasma glucose (Mus musculus [27]): 6.83 mM; plasma glucose (Mus musculus [28]): 7.62 mM; plasma glucose (Mus musculus [29]): 7.4 mM; plasma glucose (Mus musculus [30]): 6.05 mM; plasma glucose (Mus musculus [31]): 6.7 mM; plasma glucose (Mus musculus [32]): 7.47 mM; AUC (Mus musculus [33]): 416 mg/dL×min; AUC (Mus musculus [34]): 451 mg/dL×min; AUC (Mus musculus [35]): 449 mg/dL×min |

| Structure (SMILES) | IC50 [1] | IC50 (HepG2) | logD [2] | Stability [3] | half-life [6] | CLint [7] | CLint scaled [8] | solubility kinetic (physchem) | IC50 (Hepatocyte) | further results |
| --- | --- | --- | --- | --- | --- | --- | --- | --- | --- | --- |
| O=C(O)Cc1ccccc1Nc1c(Cl)cccc1Cl [DICLOFENAC] | – | – | – | – | 27.1 min | 51.2 µL/min/mg | 203 mL/min/kg | – | – | – |
